{"source": "paper PMC5424463", "about": "“A strategy based on nucleotide specificity leads to a subfamily-selective and cell-active inhibitor of N ^6-methyladenosine demethylase FTO” (Chemical Science, 2014)", "target": "T1, JMJD2A (Homo sapiens, UniProt O75164)", "T1 construct": "pNIC28-Bsa4 JMJD2A (encompassing residues 1-359); inferred from Ni-NTA purification and the pNIC28-Bsa4 vector; made in house; host or cells: E. coli BL21 (DE3) Rosetta T1R", "T1 sequence (O75164 1-359)": "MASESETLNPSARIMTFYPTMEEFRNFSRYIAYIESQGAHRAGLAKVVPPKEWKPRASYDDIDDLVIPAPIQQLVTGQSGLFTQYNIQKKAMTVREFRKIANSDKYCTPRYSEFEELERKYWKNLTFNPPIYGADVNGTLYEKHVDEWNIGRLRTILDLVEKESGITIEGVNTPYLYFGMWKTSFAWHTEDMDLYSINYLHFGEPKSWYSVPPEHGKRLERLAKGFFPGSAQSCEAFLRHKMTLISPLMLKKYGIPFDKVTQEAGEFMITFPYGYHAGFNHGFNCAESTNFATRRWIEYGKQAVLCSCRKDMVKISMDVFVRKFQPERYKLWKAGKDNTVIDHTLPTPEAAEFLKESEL", "assay": "MALDI-based inhibition assay for JMJD2A", "format": "biochemical", "details": "ARK(me3)STGGK substrate", "description": "min, before 1:1 quenching with methanol. 1 uL of the diluted assay mixture was then mixed with 1 uL of α-cyano-4-hydroxycinnamic acid (CHCA, the MALDI-TOF-MS matrix, Sigma-Aldrich) and spotted onto the MALDI-TOF-MS plate before analysis. The CHCA matrix consisted of 10 mg/mL CHCA in 50% MeCN/Milli-Q H2O containing 0.1% TFA. The percentage inhibition was estimated based on the relative intensities of the unhydroxylated substrate and the hydroxylated product observed in the mass spectra. For IC50 determination, eight different concentrations of inhibitors were used (0, 1, 3, 10, 30, 100, 300, 1000 µM); the IC50s were then calculated from the variation in percentage hydroxylation at different inhibitor concentrations, using nonlinear regression, with normalized dose-response fit on […]\nMALDI-based inhibition assay for JMJD2A\nThe assay was performed as previously reported, with modifications.[20] A peptide substrate with the sequence ARK(me3)STGGK (GL Biochem (Shanghai) Ltd) was used in this inhibition assay. The assay was performed in triplicate for each inhibitor, in a final reaction volume of 25 µL. […]\nIC50s were then calculated from the variation in percentage demethylation at different"}
{"smiles": "O=C(O)/C=C/C(=O)NNC(=O)c1cnccc1Cc1ccccc1", "note": "[Compound 12]", "values": [{"measurement": "IC50", "result": "> 300", "unit": "µM"}]}
